From ChEMBL document CHEMBL1127892, “(6-oxo-3-pyridazinyl)-benzimidazoles as potent angiotensin II receptor antagonists” (Bioorg Med Chem Lett, 1994)

Key:
[1] = target: T1, Angiotensin II receptor (AT-1) type-1 (Rattus norvegicus, UniProt P29089+P25095); experiment: Concentration required for 50% inhibition of binding against Angiotensin II receptor, type 1 in rat adrenal cortex; assay type: tissue-based
T1 sequence (P29089 whole entry): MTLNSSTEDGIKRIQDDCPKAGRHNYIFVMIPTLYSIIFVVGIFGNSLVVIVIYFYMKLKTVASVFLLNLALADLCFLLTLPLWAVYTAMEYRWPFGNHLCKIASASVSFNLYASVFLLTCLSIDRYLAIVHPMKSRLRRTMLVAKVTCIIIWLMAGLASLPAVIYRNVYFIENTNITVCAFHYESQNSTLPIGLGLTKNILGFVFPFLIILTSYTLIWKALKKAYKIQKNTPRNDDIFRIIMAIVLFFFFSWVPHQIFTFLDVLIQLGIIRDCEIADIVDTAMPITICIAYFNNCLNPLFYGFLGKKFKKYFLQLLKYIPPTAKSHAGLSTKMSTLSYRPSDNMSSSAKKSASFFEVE
T1 sequence (P25095 whole entry): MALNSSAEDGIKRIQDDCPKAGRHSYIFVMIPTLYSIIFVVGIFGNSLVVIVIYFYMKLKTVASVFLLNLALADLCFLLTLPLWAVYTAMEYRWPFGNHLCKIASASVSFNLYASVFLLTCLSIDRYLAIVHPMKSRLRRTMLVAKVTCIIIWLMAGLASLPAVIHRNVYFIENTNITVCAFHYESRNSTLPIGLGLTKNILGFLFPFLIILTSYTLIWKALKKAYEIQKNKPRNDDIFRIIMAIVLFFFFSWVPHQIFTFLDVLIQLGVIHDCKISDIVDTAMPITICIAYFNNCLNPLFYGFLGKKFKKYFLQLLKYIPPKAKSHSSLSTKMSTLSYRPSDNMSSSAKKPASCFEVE

[2] = target: T2, Type-1 angiotensin II receptor (Oryctolagus cuniculus, UniProt P34976); experiment: Inhibitory activity against Angiotensin II receptor, type 1 induced contractions in isolated rabbit aortic rings; assay type: functional
T2 sequence (P34976 whole entry): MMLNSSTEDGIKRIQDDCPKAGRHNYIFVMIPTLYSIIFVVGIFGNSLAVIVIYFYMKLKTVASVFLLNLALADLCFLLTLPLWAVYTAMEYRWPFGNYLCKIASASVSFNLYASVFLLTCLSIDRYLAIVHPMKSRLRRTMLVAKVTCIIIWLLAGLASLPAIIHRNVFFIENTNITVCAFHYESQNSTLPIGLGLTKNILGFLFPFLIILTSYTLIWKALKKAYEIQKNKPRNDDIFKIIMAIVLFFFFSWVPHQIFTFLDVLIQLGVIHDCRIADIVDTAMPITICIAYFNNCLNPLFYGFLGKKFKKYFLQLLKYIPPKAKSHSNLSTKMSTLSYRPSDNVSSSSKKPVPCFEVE

[3] = target: T3, Type-1 angiotensin II receptor (Bos taurus, UniProt P25104); experiment: Concentration required for 50% inhibition of binding against Angiotensin II receptor, type 1 in bovine adrenal cortex; assay type: tissue-based
T3 sequence (P25104 whole entry): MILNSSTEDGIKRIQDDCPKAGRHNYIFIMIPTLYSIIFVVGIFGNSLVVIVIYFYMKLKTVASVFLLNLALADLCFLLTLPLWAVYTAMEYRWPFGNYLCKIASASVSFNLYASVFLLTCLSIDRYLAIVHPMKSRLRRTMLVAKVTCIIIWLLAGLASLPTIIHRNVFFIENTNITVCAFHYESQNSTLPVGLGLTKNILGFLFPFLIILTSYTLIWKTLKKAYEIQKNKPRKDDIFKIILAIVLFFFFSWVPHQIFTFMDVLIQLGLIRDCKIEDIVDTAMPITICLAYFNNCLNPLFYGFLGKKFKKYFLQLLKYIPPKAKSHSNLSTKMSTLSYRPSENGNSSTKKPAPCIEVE

[4] = target: T1, Angiotensin II receptor (AT-1) type-1; experiment: In vivo percent inhibition of Angiotensin II receptor, type 1 induced increase in diastolic blood pressure in pithed rat at 3 mg/kg i.d.; assay type: functional, organism-based, Artery; parameters: dose 3 mg/kg, route intraduodenal

Row | SMILES | IC50 [1] [µM] | IC50 [2] [µM] | IC50 [3] [µM] | Inhibition [4] [%]
1 | CCc1nc2ccc(C3=NN(CC(=O)N(C)C)C(=O)CC3)cc2n1Cc1ccc(-c2ccccc2-c2nn[n-]n2)cc1.[K+] | 0.0016 | 0.003 | – | –
2 | Cc1cc(=O)n(CC(=O)N(C)C)nc1-c1ccc2nc(C3CC3)n(Cc3ccc(-c4ccccc4-c4nn[n-]n4)cc3)c2c1.[K+] | 0.0036 | – | – | –
3 | CCCCc1nc2ccc(C3=NNC(=O)CC3C)cc2[nH]1 (stereo unspecified) | – | – | > 1000 | –
4 | CCCc1nc2ccc(C3=NN(CC(=O)N(C)C)C(=O)CC3)cc2n1Cc1ccc(-c2ccccc2-c2nn[n-]n2)cc1.[K+] | 0.0017 | 0.002 | – | –
5 | COc1ccc(-c2nc3ccc(C4=NNC(=O)CC4C)cc3[nH]2)cc1 (stereo unspecified) [PIMOBENDAN] | – | – | 17 | –
6 | CCCCc1nc2cc(C3=NN(Cc4ccc(-c5ccccc5-c5nn[nH]n5)cc4)C(=O)CC3C)ccc2[nH]1 (stereo unspecified) | – | – | 7 | –
7 | CN(C)C(=O)CN1N=C(c2ccc3nc(C4CC4)n(Cc4ccc(-c5ccccc5-c5nn[n-]n5)cc4)c3c2)C(C)(C)CC1=O.[K+] | 0.0047 | 0.002 | – | –
8 | COc1ccc(-c2nc3cc(C4=NN(Cc5ccc(-c6ccccc6-c6nn[nH]n6)cc5)C(=O)CC4C)ccc3[nH]2)cc1 (stereo unspecified) | – | – | 54 | –
9 | CN(C)C(=O)CN1N=C(c2ccc3nc(C4CC4)n(Cc4ccc(-c5ccccc5-c5nn[n-]n5)cc4)c3c2)CCC1=O.[K+] | 0.0036 | 0.002 | – | –
10 | CCCCc1nc2ccc(-c3nnc(O)cc3C)cc2n1Cc1ccc(-c2ccccc2-c2nn[nH]n2)cc1 | 0.0044 | – | – | –
11 | CCCCc1nc2ccc(C3=NN(CC(=O)N(C)C)C(=O)CC3C)cc2n1Cc1ccc(-c2ccccc2-c2nn[n-]n2)cc1.[K+] (stereo unspecified) | 0.0028 | – | – | –

Second part, led by results:

Row | IC50 [1] [µM] | IC50 [2] [µM] | IC50 [3] [µM] | SMILES | Inhibition [4] [%]
12 | 0.0065 | – | – | COC(=O)c1ccccc1CN1N=C(c2ccc3nc(C4CC4)n(Cc4ccc(-c5ccccc5-c5nn[nH]n5)cc4)c3c2)C(C)CC1=O (stereo unspecified) | –
13 | 0.0063 | – | 0.022 | CCCCc1nc2ccc(C3=NNC(=O)CC3C)cc2n1Cc1ccc(-c2ccccc2-c2nn[nH]n2)cc1 (stereo unspecified) | –
14 | 0.0034 | 0.004 | – | CC1(C)CC(=O)NN=C1c1ccc2nc(C3CC3)n(Cc3ccc(-c4ccccc4-c4nn[n-]n4)cc3)c2c1.[K+] | 80
15 | 0.0018 | 0.002 | – | CC1CC(=O)NN=C1c1ccc2nc(C3CC3)n(Cc3ccc(-c4ccccc4-c4nn[nH]n4)cc3)c2c1 (stereo unspecified) | 80
16 | 0.0018 | 0.003 | – | Cc1cc(O)nnc1-c1ccc2nc(C3CC3)n(Cc3ccc(-c4ccccc4-c4nn[nH]n4)cc3)c2c1 | 40
17 | 0.0029 | 0.002 | – | CC1CC(=O)N(CC(=O)N(C)C)N=C1c1ccc2nc(C3CC3)n(Cc3ccc(-c4ccccc4-c4nn[n-]n4)cc3)c2c1.[K+] (stereo unspecified) | 56
18 | 0.005 | – | – | CCCCc1nc2ccc(C3=NNC(=O)CC3)cc2n1Cc1ccc(-c2ccccc2-c2nn[nH]n2)cc1 | –
19 | – | – | 5.5 | COc1ccc(-c2nc3cc(C4=NNC(=O)CC4C)ccc3n2Cc2ccc(-c3ccccc3-c3nn[nH]n3)cc2)cc1 (stereo unspecified) | –
20 | 0.0032 | 0.004 | – | COC(=O)CN1N=C(c2ccc3nc(C4CC4)n(Cc4ccc(-c5ccccc5-c5nn[nH]n5)cc4)c3c2)C(C)CC1=O (stereo unspecified) | 57
21 | – | – | 0.161 | CCCCc1nc2cc(C3=NNC(=O)CC3C)ccc2n1Cc1ccc(-c2ccccc2-c2nnn[nH]2)cc1 (stereo unspecified) | –
